pIC50: −log10 of the molar value. Where a SMILES comes first, the peptide text is derived from it.
Biological target: HLA B*1501 (Homo sapiens, UniProt P01889, A329T/A93T/A95T/C349S/D201E/D98Y/E187L/E204Q/E69M/E70A/K202T/N87E/Q94N/R155S/R180W/S121R/S35A/S48A/V306I/V36M/Y140S/Y91S)
Assay: biochemical
Type: binding

SMILES	pIC50
CC[C@H](C)[C@H](NC(=O)[C@@H](N)Cc1c[nH]cn1)C(=O)N[C@@H](CC(N)=O)C(=O)N[C@@H](CCCCN)C(=O)N[C@@H](CC(C)C)C(=O)N[C@@H](Cc1ccccc1)C(=O)N[C@@H](CO)C(=O)N[C@H](C(=O)N[C@@H](Cc1ccccc1)C(=O)O)C(C)C [3102.0997] (H-HINKLFSVF-OH)	9.04
CC[C@H](C)[C@H](NC(=O)[C@H](CO)NC(=O)[C@H](C)N)C(=O)N[C@H](C(=O)N[C@@H](C)C(=O)N[C@@H](Cc1ccccc1)C(=O)N[C@@H](CCCCN)C(=O)N[C@@H](CO)C(=O)N[C@@H](CCSC)C(=O)O)[C@@H](C)O [3102.0999] (H-ASITAFKSM-OH)	7.60
CC[C@H](C)[C@H](NC(=O)[C@H](C)NC(=O)[C@@H](N)CC(C)C)C(=O)N1CCC[C@H]1C(=O)N[C@@H](C)C(=O)N[C@H](C(=O)N[C@@H](CCC(=O)O)C(=O)N[C@@H](Cc1ccccc1)C(=O)N[C@@H](Cc1ccccc1)C(=O)O)[C@@H](C)O [3102.1001] (H-LAIPATEFF-OH)	8.38
CC[C@H](C)[C@H](NC(=O)[C@H](CO)NC(=O)[C@@H](N)CC(C)C)C(=O)N[C@@H](Cc1ccccc1)C(=O)N[C@@H](Cc1ccccc1)C(=O)N[C@H](C(=O)N[C@H](C(=O)N[C@H](C(=O)N[C@@H](C)C(=O)O)C(C)C)C(C)C)[C@@H](C)CC [3102.1004] (H-LSIFFIVVA-OH)	7.09
CC[C@H](C)[C@H](NC(=O)[C@H](CC(N)=O)NC(=O)[C@H](C)N)C(=O)N[C@H](C(=O)N[C@@H](Cc1c[nH]cn1)C(=O)N[C@@H](Cc1ccccc1)C(=O)N[C@@H](CS)C(=O)N[C@@H](CO)C(=O)N[C@@H](Cc1ccccc1)C(=O)O)[C@@H](C)O [3102.1005] (H-ANITHFCSF-OH)	7.82
CC[C@H](C)[C@H](NC(=O)[C@H](CC(N)=O)NC(=O)[C@H](C)NC(=O)[C@H](CCCNC(=N)N)NC(=O)CNC(=O)[C@@H](N)CC(C)C)C(=O)N[C@H](C(=O)N[C@@H](Cc1c[nH]cn1)C(=O)N[C@@H](Cc1ccccc1)C(=O)O)[C@@H](C)O [3102.1006] (H-LGRANITHF-OH)	8.17
CC(C)C[C@H](NC(=O)[C@H](CC(C)C)NC(=O)[C@@H](N)Cc1ccccc1)C(=O)N[C@@H](CO)C(=O)N[C@@H](CC(C)C)C(=O)N[C@H](C(=O)N[C@@H](CCC(=O)O)C(=O)N[C@@H](Cc1ccccc1)C(=O)N[C@@H](Cc1ccccc1)C(=O)O)C(C)C [3102.1008] (H-FLLSLVEFF-OH)	9.09
CSCC[C@H](NC(=O)[C@H](CO)NC(=O)[C@H](CS)NC(=O)[C@H](CO)NC(=O)[C@@H](NC(=O)[C@@H](N)CCCCN)C(C)C)C(=O)N[C@@H](CC(C)C)C(=O)N[C@@H](CCC(=O)O)C(=O)N[C@@H](Cc1ccccc1)C(=O)O [3102.1010] (H-KVSCSMLEF-OH)	9.08
CC[C@H](C)[C@H](NC(=O)[C@@H](NC(=O)CN)[C@@H](C)O)C(=O)N[C@@H](CCSC)C(=O)N[C@H](C(=O)N[C@@H](CO)C(=O)N[C@@H](CCC(=O)O)C(=O)N[C@@H](Cc1c[nH]cn1)C(=O)N[C@@H](Cc1ccccc1)C(=O)O)C(C)C [3102.1012] (H-GTIMVSEHF-OH)	7.24
CC[C@H](C)[C@H](NC(=O)[C@H](CCSC)NC(=O)[C@H](C)N)C(=O)N[C@@H](CCC(=O)O)C(=O)N[C@@H](CC(C)C)C(=O)N[C@@H](CS)C(=O)NCC(=O)N[C@@H](C)C(=O)N[C@@H](Cc1ccccc1)C(=O)O [3102.1013] (H-AMIELCGAF-OH)	9.47
CC(C)C[C@H](NC(=O)[C@H](Cc1ccccc1)NC(=O)[C@H](C)NC(=O)CNC(=O)[C@H](CS)NC(=O)[C@H](CC(C)C)NC(=O)[C@@H](N)CCC(=O)O)C(=O)N[C@@H](Cc1ccccc1)C(=O)N[C@@H](Cc1ccc(O)cc1)C(=O)O [3102.1015] (H-ELCGAFLFY-OH)	8.12
CC[C@H](C)[C@H](NC(=O)[C@H](CC(C)C)NC(=O)[C@@H](N)CO)C(=O)N[C@@H](Cc1ccc(O)cc1)C(=O)N[C@@H](CC(C)C)C(=O)N[C@@H](CS)C(=O)N[C@H](C(=O)N[C@@H](Cc1ccccc1)C(=O)N[C@@H](CCSC)C(=O)O)[C@@H](C)O [3102.1017] (H-SLIYLCTFM-OH)	8.35
CC[C@H](C)[C@H](N)C(=O)N[C@H](C(=O)N[C@@H](CO)C(=O)N[C@@H](CO)C(=O)N[C@@H](CO)C(=O)N[C@H](C(=O)N[C@@H](CC(C)C)C(=O)N[C@@H](Cc1ccc(O)cc1)C(=O)N[C@@H](Cc1ccccc1)C(=O)O)[C@@H](C)O)[C@@H](C)CC [3102.1018] (H-IISSSTLYF-OH)	8.96
CC(C)C[C@H](NC(=O)[C@H](CCCCN)NC(=O)[C@H](CCCCN)NC(=O)[C@H](CC(C)C)NC(=O)[C@@H](N)CC(C)C)C(=O)N[C@@H](CC(N)=O)C(=O)N[C@@H](CO)C(=O)N[C@@H](Cc1ccccc1)C(=O)NCC(=O)O [3102.1020] (H-LLKKLNSFG-OH)	7.35
CC(C)C[C@H](NC(=O)[C@@H](N)CC(C)C)C(=O)N[C@@H](Cc1c[nH]cn1)C(=O)N[C@@H](CS)C(=O)N[C@H](C(=O)N[C@H](C(=O)N[C@@H](CCC(=O)O)C(=O)N[C@@H](CO)C(=O)N[C@@H](Cc1ccc(O)cc1)C(=O)O)[C@@H](C)O)C(C)C [3102.1022] (H-LLHCVTESY-OH)	9.00
CC[C@H](C)[C@H](NC(=O)[C@H](CCC(=O)O)NC(=O)[C@H](Cc1ccccc1)NC(=O)[C@H](Cc1ccccc1)NC(=O)[C@@H](NC(=O)[C@@H](N)Cc1ccc(O)cc1)C(C)C)C(=O)N[C@H](C(=O)N[C@@H](Cc1c[nH]cn1)C(=O)N[C@@H](Cc1ccccc1)C(=O)O)[C@@H](C)CC [3102.1024] (H-YVFFEIIHF-OH)	9.16
CSCC[C@H](NC(=O)[C@H](Cc1c[nH]cn1)NC(=O)[C@H](CCCCN)NC(=O)[C@H](CC(N)=O)NC(=O)[C@@H](NC(=O)[C@H](CC(N)=O)NC(=O)[C@H](CO)NC(=O)[C@H](CCC(N)=O)NC(=O)[C@@H](N)CCCCN)[C@@H](C)O)C(=O)O [3102.1026] (H-KQSNTNKHM-OH)	7.55
CSCC[C@H](NC(=O)[C@H](Cc1c[nH]cn1)NC(=O)[C@H](CCCCN)NC(=O)[C@H](CC(N)=O)NC(=O)[C@@H](NC(=O)[C@@H](N)CC(N)=O)[C@@H](C)O)C(=O)N[C@@H](CC(C)C)C(=O)N[C@@H](CCC(=O)O)C(=O)N[C@@H](Cc1ccccc1)C(=O)O [3102.1027] (H-NTNKHMLEF-OH)	7.92
CC(C)C[C@H](NC(=O)[C@H](C)NC(=O)[C@@H](NC(=O)[C@H](Cc1ccccc1)NC(=O)[C@H](CS)NC(=O)[C@H](Cc1ccccc1)NC(=O)[C@H](Cc1ccc(O)cc1)NC(=O)[C@@H](NC(=O)[C@@H](N)CC(C)C)[C@@H](C)O)C(C)C)C(=O)O [3102.1028] (H-LTYFCFVAL-OH)	7.54
CC[C@H](C)[C@H](NC(=O)[C@H](CO)NC(=O)[C@H](CC(C)C)NC(=O)[C@H](CC(C)C)NC(=O)[C@@H](N)CC(C)C)C(=O)N[C@@H](CC(N)=O)C(=O)N[C@@H](CO)C(=O)N[C@@H](CO)C(=O)N[C@@H](Cc1ccccc1)C(=O)O [3102.1035] (H-LLLSINSSF-OH)	9.06
CC[C@H](C)[C@H](NC(=O)[C@@H](N)CCSC)C(=O)N[C@@H](CCCCN)C(=O)N[C@@H](CC(N)=O)C(=O)N[C@@H](CC(C)C)C(=O)N[C@H](C(=O)N[C@@H](CCC(N)=O)C(=O)N[C@@H](CC(C)C)C(=O)N[C@@H](Cc1ccccc1)C(=O)O)[C@@H](C)O [3102.1037] (H-MIKNLTQLF-OH)	8.24
CSCC[C@H](NC(=O)[C@H](C)NC(=O)[C@@H]1CCCN1C(=O)[C@@H](NC(=O)[C@H](Cc1ccc(O)cc1)NC(=O)[C@H](C)NC(=O)[C@H](CCCCN)NC(=O)[C@H](CCC(N)=O)NC(=O)[C@@H](N)CCC(=O)O)C(C)C)C(=O)O [3102.1038] (H-EQKAYVPAM-OH)	9.11
CC[C@H](C)[C@H](NC(=O)[C@H](CC(N)=O)NC(=O)[C@H](CC(N)=O)NC(=O)[C@@H](NC(=O)[C@@H](N)CO)[C@@H](C)CC)C(=O)N[C@@H](CC(=O)O)C(=O)N1CCC[C@H]1C(=O)N[C@@H](Cc1c[nH]cn1)C(=O)N[C@@H](Cc1ccccc1)C(=O)O [3102.1039] (H-SINNIDPHF-OH)	7.92
CC[C@H](C)[C@H](NC(=O)[C@H](Cc1ccc(O)cc1)NC(=O)[C@@H](NC(=O)[C@H](CC(N)=O)NC(=O)[C@H](CCC(=O)O)NC(=O)[C@@H](N)CCSC)C(C)C)C(=O)N[C@@H](CO)C(=O)N[C@@H](CO)C(=O)N[C@@H](Cc1ccc(O)cc1)C(=O)O [3102.1042] (H-MENVYISSY-OH)	8.70
CC[C@H](C)[C@H](NC(=O)[C@H](CC(N)=O)NC(=O)[C@H](C)NC(=O)[C@@H](NC(=O)[C@@H](N)CC(C)C)[C@@H](C)CC)C(=O)N[C@@H](Cc1c[nH]cn1)C(=O)N[C@@H](CC(N)=O)C(=O)N[C@@H](Cc1c[nH]cn1)C(=O)N[C@@H](CCSC)C(=O)O [3102.1046] (H-LIANIHNHM-OH)	9.17
CSCC[C@H](NC(=O)[C@H](CCC(N)=O)NC(=O)[C@H](CCC(N)=O)NC(=O)[C@@H](NC(=O)[C@H](CCC(=O)O)NC(=O)[C@@H]1CCCN1C(=O)[C@H](CO)NC(=O)[C@H](CO)NC(=O)[C@@H](N)CCCCN)[C@@H](C)O)C(=O)O [3102.1065] (H-KSSPETQQM-OH)	7.52
CC[C@H](C)[C@H](NC(=O)[C@H](CO)NC(=O)[C@H](CC(C)C)NC(=O)CNC(=O)[C@H](CCC(=O)O)NC(=O)[C@H](CO)NC(=O)[C@H](Cc1ccc(O)cc1)NC(=O)[C@H](CC(C)C)NC(=O)[C@@H](N)CCCNC(=N)N)C(=O)O [3102.1232] (H-RLYSEGLSI-OH)	8.35
CC(C)C[C@H](NC(=O)[C@H](CCC(=O)O)NC(=O)[C@@H]1CCCN1C(=O)[C@@H](NC(=O)[C@H](Cc1ccc(O)cc1)NC(=O)[C@@H](NC(=O)[C@@H](N)Cc1ccccc1)C(C)C)C(C)C)C(=O)N[C@@H](CO)C(=O)N[C@@H](Cc1ccccc1)C(=O)O [3102.1280] (H-FVYVPELSF-OH)	9.02
CSCC[C@H](N)C(=O)N[C@@H](CO)C(=O)N[C@@H](CO)C(=O)N[C@@H](CO)C(=O)N[C@@H](CCC(N)=O)C(=O)N[C@@H](CC(=O)O)C(=O)N[C@@H](CC(C)C)C(=O)N[C@@H](CO)C(=O)N[C@@H](Cc1ccccc1)C(=O)O [3102.1286] (H-MSSSQDLSF-OH)	7.80
